The values that follow come from PubChem BioAssay (NCI).

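Assay format: 96-well plates, 48-hour exposure. GI50 = concentration required for 50% inhibition of growth. TGI denotes the concentration required for complete inhibition of growth.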

Among the test systems are DU-145 prostate; MDA-MB-435; NCI/ADR-RES ovarian; HS 578T breast; T-47D breast; BT-549 breast.
Assay in all cases: NCI tumour cell line growth inhibition, 48 h

As for `COc1cccc(-c2nc3cc(NC(=O)c4ccc(Cl)c(C#N)c4)ccc3o2)c1`, the GI50 in the assay on DU-145 prostate was 2.36 µM; in the assay with MDA-MB-435, 1.37 µM; with NCI/ADR-RES ovarian, 1.42 µM; with HS 578T breast it was 8.89 µM; in the assay with T-47D breast, 3.75 µM. Also, the TGI in the assay on DU-145 prostate was more than 100 µM; in the assay with MDA-MB-435, 2.85 µM; in the assay on NCI/ADR-RES ovarian it was 4.31 µM; in the assay with HS 578T breast, more than 100 µM; in the assay on T-47D breast, more than 100 µM.

For `Clc1ccc(-c2cn3ccnc3c(-c3ccc(Cl)cc3)n2)cc1`, the GI50 was 25.3 µM in the assay on DU-145 prostate; 2.79 µM with MDA-MB-435; 11.2 µM in the assay on NCI/ADR-RES ovarian; 46 µM in the assay on BT-549 breast; 26.3 µM with HS 578T breast. Besides, the TGI was more than 100 µM in the assay on DU-145 prostate; 8.07 µM in the assay on MDA-MB-435; 47.5 µM in the assay with NCI/ADR-RES ovarian; more than 100 µM in the assay with BT-549 breast; 92.4 µM in the assay on HS 578T breast.

In the case of `CCC1(O)C(=O)OCc2c1cc1n(c2=O)Cc2cc3ccccc3nc2-1` (stereo not given), the TGI in the assay with MDA-MB-435 is 8.35 µM; with NCI/ADR-RES ovarian it was 2.15 µM; in the assay with BT-549 breast it was more than 41.4 µM; in the assay on HS 578T breast it was more than 100 µM; in the assay with T-47D breast, more than 33.6 µM.

In the case of `O=C(O)c1nc(NCc2nc3cc(Cl)ccc3o2)n[nH]1`, the GI50 in the assay with DU-145 prostate, in the assay with MDA-MB-435, with NCI/ADR-RES ovarian, in the assay with BT-549 breast, with HS 578T breast and in the assay with T-47D breast was more than 100 µM in each case. The TGI in the assay on DU-145 prostate, in the assay on MDA-MB-435, in the assay on NCI/ADR-RES ovarian, with BT-549 breast, in the assay on HS 578T breast and with T-47D breast was more than 100 µM throughout.

With `C/C(=N/O)c1cccc(Nc2cc(-n3nnc4ccccc43)nc3ccccc23)c1`, the GI50 in the assay with DU-145 prostate was 11.6 µM; in the assay with MDA-MB-435 it was 13.7 µM; with NCI/ADR-RES ovarian it was 8.36 µM; in the assay with BT-549 breast, 19.5 µM; in the assay on HS 578T breast it was 14.3 µM; in the assay on T-47D breast it was 34.6 µM. In addition, the TGI in the assay on DU-145 prostate is 41.3 µM; with MDA-MB-435, 37.1 µM; in the assay on NCI/ADR-RES ovarian, 27.9 µM; in the assay on BT-549 breast it was 54.7 µM; in the assay on HS 578T breast, 45.5 µM; in the assay with T-47D breast, more than 85.3 µM.

Consider `O=C1OCC2=C1C(c1cccc(F)c1)c1cc3c(cc1N2CCO)OCO3` (stereo not given), for which the GI50 in the assay with DU-145 prostate is 2.71 µM; in the assay with MDA-MB-435 it was 0.187 µM; in the assay with NCI/ADR-RES ovarian it was 2.02 µM; with BT-549 breast, 1.46 µM; in the assay with HS 578T breast, 1.42 µM; in the assay on T-47D breast it was 2.18 µM. Further, the TGI with DU-145 prostate was more than 50 µM; in the assay with MDA-MB-435 it was 1.57 µM; in the assay on NCI/ADR-RES ovarian it was more than 50 µM; with BT-549 breast, more than 50 µM; in the assay with HS 578T breast, more than 50 µM; in the assay with T-47D breast, more than 50 µM.

`CN(C)CCNC(=O)Cn1ccc(=O)c2cc([N+](=O)[O-])ccc21`: the TGI with DU-145 prostate, in the assay on MDA-MB-435, in the assay with NCI/ADR-RES ovarian, in the assay on HS 578T breast and in the assay on T-47D breast was more than 100 µM each time.

For `CC(CO)Nc1cc(-c2[nH]c3cccnc3c2-c2ccc(F)cc2)ccn1` (stereo not given), the GI50 is 17.6 µM in the assay with DU-145 prostate; more than 22.4 µM in the assay with MDA-MB-435; more than 25 µM in the assay with NCI/ADR-RES ovarian; 16.1 µM with BT-549 breast; 16.8 µM in the assay with HS 578T breast; 17.1 µM in the assay on T-47D breast. Also, the TGI with DU-145 prostate, in the assay with MDA-MB-435, in the assay with NCI/ADR-RES ovarian, with BT-549 breast, in the assay on HS 578T breast and with T-47D breast was more than 25 µM in each case.

For `COc1ccc(C2=Nn3c(nnc3-c3cc(Cl)cc(Cl)c3Cl)SC2)cc1`, the GI50 is 0.355 µM in the assay with DU-145 prostate; 0.163 µM in the assay with MDA-MB-435; 0.248 µM in the assay on NCI/ADR-RES ovarian; 0.661 µM in the assay with BT-549 breast; 0.376 µM in the assay with HS 578T breast. Also, the TGI is 4.42 µM in the assay with DU-145 prostate; 0.588 µM with MDA-MB-435; 1.26 µM in the assay with NCI/ADR-RES ovarian; more than 21.9 µM with BT-549 breast; 13.6 µM with HS 578T breast.

On to `CCSC1=NC2C(N(CC)C(=O)N2CC)N1/N=C/C=C/c1ccccc1[N+](=O)[O-]` (stereo not given), for which the GI50 was 0.325 µM in the assay on DU-145 prostate; 0.209 µM in the assay on NCI/ADR-RES ovarian; 0.284 µM with BT-549 breast; 0.118 µM in the assay on HS 578T breast; 2.59 µM in the assay on T-47D breast. The TGI in the assay with DU-145 prostate was more than 100 µM; in the assay with NCI/ADR-RES ovarian, more than 100 µM; in the assay on BT-549 breast it was 4.23 µM; in the assay on HS 578T breast, more than 100 µM; in the assay with T-47D breast, more than 82.1 µM.

For the compound `CCOC(=O)Oc1c(OC)cc(C(=O)c2ccc(OC)c(O)c2OC)cc1OC`, the GI50 in the assay on DU-145 prostate is 0.885 µM; in the assay with MDA-MB-435, 0.288 µM; in the assay with NCI/ADR-RES ovarian, 0.378 µM; in the assay on BT-549 breast it was 0.465 µM. Also, the TGI is more than 100 µM in the assay on DU-145 prostate, 1.01 µM in the assay on MDA-MB-435, 6.97 µM with NCI/ADR-RES ovarian and 6.97 µM with BT-549 breast.

For `COc1ccc(-c2noc(C(=O)O)c2-c2cc(OC)c(OC)c(OC)c2)cc1`, the GI50 was 3.48 µM in the assay with DU-145 prostate; 0.306 µM with MDA-MB-435; 1.47 µM in the assay with NCI/ADR-RES ovarian; 17.9 µM with BT-549 breast; 3.38 µM with HS 578T breast. Also, the TGI with DU-145 prostate was more than 100 µM; in the assay with MDA-MB-435, 1.1 µM; in the assay on NCI/ADR-RES ovarian it was more than 100 µM; with BT-549 breast, more than 100 µM; in the assay with HS 578T breast, more than 100 µM.

For `c1ccc(C2ONC3=NCCN32)cc1` (stereo not given), the GI50 in the assay with DU-145 prostate is 62.1 µM; in the assay on MDA-MB-435 it was 93.9 µM; in the assay with NCI/ADR-RES ovarian, 25.8 µM; in the assay with BT-549 breast, 79.6 µM; in the assay with T-47D breast it was 44 µM. The TGI with DU-145 prostate was more than 100 µM; with MDA-MB-435 it was more than 100 µM; with NCI/ADR-RES ovarian, 88.6 µM; in the assay on BT-549 breast, more than 100 µM; with T-47D breast it was more than 100 µM.

Turning to `CCSCCCSCCSCC`, the TGI with DU-145 prostate, in the assay with MDA-MB-435, with BT-549 breast and with T-47D breast was more than 100 µM each time.
